# Patent publication US20150044702A1, “MEANS AND METHODS FOR ASSESSING DISORDERS RELATED TO IMPAIRED IRON […] ENERGY METABOLISM” (BASF SE, priority 2012, published 2015)
# Marks after values point to notes of the source that are not given here.
# Experiments:
# [1] = 28-day rat study, plasma metabolite profiling: markers for Energy metabolism decreased; format: in vivo; conditions: for 3-Hydroxybutyrate, treatment ratio versus control / Citrate, treatment ratio versus control / Pyruvate, treatment ratio versus control / Succinate, treatment ratio versus control: male rats, plasma; for capability of inducing impaired energy metabolism: statement in words
# Text: Drinking water was also offered ad libitum.
# The samples were centrifuged for generation of plasma.
# [2] = 28-day rat study, plasma metabolite profiling: markers for Duodenum iron deficiency; conditions: for Cholic acid, treatment ratio versus control / Choline plasmalogen (C18,C20:4), treatment ratio versus control / Citrate, treatment ratio versus control / Creatinine, treatment ratio versus control / DAG (C18:1,C18:2), treatment ratio versus control / Hippuric acid, treatment ratio versus control / Indole-3-propionic acid, treatment ratio versus control / Methionine, treatment ratio versus control / Proline, treatment ratio versus control / Serine, treatment ratio versus control / TAG (C16:0,C18:1,C18:3), treatment ratio versus control / TAG (C18:1,C18:2), treatment ratio versus control / TAG (C18:2,C18:2), treatment ratio versus control / TAG (C18:2,C18:3), treatment ratio versus control / TAG (DAG-Fragment), treatment ratio versus control / TAG No 02, treatment ratio versus control / TAG No 07, treatment ratio versus control / Threonine, treatment ratio versus control / alpha-Tocopherol, treatment ratio versus control / Alanine, treatment ratio versus control / Campesterol, treatment ratio versus control / Glutamate, treatment ratio versus control / Glutamine, treatment ratio versus control / Lysophosphatidylcholine (C20:4), treatment ratio versus control / Malate, treatment ratio versus control / Ornithine, treatment ratio versus control / Phosphatidylcholine (C18:0, C22:6), treatment ratio versus control / Threonic acid, treatment ratio versus control: plasma;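 further: rats given the compounds once a day across 28 days, plasma from fasted animals profiled by GC-MS and LC-MS, separate control groups of five rats per sex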
# Description: A group of each 5 male and female rats was dosed once daily with the indicated compounds (see Table 4, below for compounds, applied doses and administration details) over 28 days.
# Each dose group in the studies consisted of five rats per sex. Additional groups of each 5 male and female animals served as controls. Before starting the treatment period, animals, which were 62-64 days old when supplied, were acclimatized to the housing and environmental conditions for 7 days. All animals of the animal population were kept under the same constant temperature (20-24±3° C.) and the same constant humidity (30-70%). The animals of the animal population were fed ad libitum. The food to be used was essentially free of chemical or microbial contaminants. Drinking water was also offered ad libitum. Accordingly, the water was free of chemical and microbial contaminants as laid down in the European Drinking Water Directive 98/83/EG. The illumination period was 12 hours light followed by 12 hours darkness (12 hours light, from 6:00 to 18:00, and 12 hours darkness, from 18:00 to 6:00). The studies were performed in an AAALAC-approved laboratory in accordance with the German Animal Welfare Act and the European Council Directive 86/609/EE. The test system was arranged according to the OECD 407 guideline for the testing of chemicals for repeated dose 28-day oral toxicity study in rodents.
# In the morning of day 7, 14, and 28, blood was taken from the retroorbital venous plexus from fasted anaesthetized animals. From each animal, 1 ml of blood was collected with EDTA as anticoagulant. The samples were centrifuged for generation of plasma. All plasma samples were covered with a N2 atmosphere and then stored at −80° C. until analysis.
# For mass spectrometry-based metabolite profiling analyses plasma samples were extracted and a polar and a non-polar (lipid) fraction was obtained. For GC-MS analysis, the non-polar fraction was treated with methanol under acidic conditions to yield the fatty acid methyl esters. Both fractions were further derivatised with O-methyl-hydroxyamine hydrochloride and pyridine to convert Oxo-groups to O-methyloximes and subsequently with a silylating agent before analysis. In LC-MS analysis, both fractions were reconstituted in appropriate solvent mixtures. HPLC was performed by gradient elution on reversed phase separation columns.
# Steroids and their metabolites were measured by online SPE-LC-MS (Solid phase extraction-LC-MS).
# Following comprehensive analytical validation steps, the data for each analyte were normalized against data from pool samples. These samples were run in parallel through the whole process to account for process variability. The significance of treatment group values specific for sex, treatment duration and metabolite was determined by comparing means of the treated groups to the means of the respective untreated control groups using WELCH-test and quantified with treatment ratios versus control and p-values.
smiles,measurement,setting,value
"NC(=O)c1ccc(N)nc1 [6-Aminonicotinamide i.p., 6-Aminopyridine-3-carboxamide]","3-Hydroxybutyrate, treatment ratio versus control",[1]; day 7,0.31*
same,"Citrate, treatment ratio versus control",[1]; day 7,0.62*
same,"Pyruvate, treatment ratio versus control",[1]; day 7,0.31*
same,"Succinate, treatment ratio versus control",[1]; day 7,0.92*
same,capability of inducing impaired energy metabolism,[1],capable of inducing impaired energy metabolism
COCCO [2-Methoxyethanol],"3-Hydroxybutyrate, treatment ratio versus control",[1]; day 7,0.45*
same,"Citrate, treatment ratio versus control",[1]; day 7,0.7*
same,"Pyruvate, treatment ratio versus control",[1]; day 7,0.63*
same,"Succinate, treatment ratio versus control",[1]; day 7,0.91
same,"3-Hydroxybutyrate, treatment ratio versus control",[1]; day 14,0.24*
same,"Citrate, treatment ratio versus control",[1]; day 14,0.39*
same,"Pyruvate, treatment ratio versus control",[1]; day 14,0.66*
same,"Succinate, treatment ratio versus control",[1]; day 14,0.99
same,capability of inducing impaired energy metabolism,[1],capable of inducing impaired energy metabolism
"CNC(=O)/C(=N/OC)c1ccccc1CO/N=C(C)/C(=N/OC)C(/C)=N/OC [Orysastrobin, (2E)-2-(methoxyimino)-2-{2-[(3E,5E,6E)-5-(methoxyimino)-4,6-dimethyl-2,8-dioxa-3,7-diazanona-3,6-dien-1-yl]phenyl}-N-methylacetamide]","Cholic acid, treatment ratio versus control","[2]; female rats, day 7",15.95
same,"Choline plasmalogen (C18,C20:4), treatment ratio versus control","[2]; female rats, day 7",1.18*
same,"Citrate, treatment ratio versus control","[2]; female rats, day 7",1.24*
same,"Creatinine, treatment ratio versus control","[2]; female rats, day 7",0.9
same,"DAG (C18:1,C18:2), treatment ratio versus control","[2]; female rats, day 7",2.21*
same,"Hippuric acid, treatment ratio versus control","[2]; female rats, day 7",0.91
same,"Indole-3-propionic acid, treatment ratio versus control","[2]; female rats, day 7",0.54
same,"Methionine, treatment ratio versus control","[2]; female rats, day 7",1.33*
same,"Proline, treatment ratio versus control","[2]; female rats, day 7",1.03
same,"Serine, treatment ratio versus control","[2]; female rats, day 7",1.32*
same,"TAG (C16:0,C18:1,C18:3), treatment ratio versus control","[2]; female rats, day 7",1.02
same,"TAG (C18:1,C18:2), treatment ratio versus control","[2]; female rats, day 7",1.34*
same,"TAG (C18:2,C18:2), treatment ratio versus control","[2]; female rats, day 7",1.63*
same,"TAG (C18:2,C18:3), treatment ratio versus control","[2]; female rats, day 7",1.37*
same,"TAG (DAG-Fragment), treatment ratio versus control","[2]; female rats, day 7",1.62*
same,"TAG No 02, treatment ratio versus control","[2]; female rats, day 7",1
same,"TAG No 07, treatment ratio versus control","[2]; female rats, day 7",1.19
same,"Threonine, treatment ratio versus control","[2]; female rats, day 7",1.83*
same,"alpha-Tocopherol, treatment ratio versus control","[2]; female rats, day 7",1.27*
same,"Cholic acid, treatment ratio versus control","[2]; female rats, day 14",2.8*
same,"Choline plasmalogen (C18,C20:4), treatment ratio versus control","[2]; female rats, day 14",1.13*
same,"Citrate, treatment ratio versus control","[2]; female rats, day 14",1.04
same,"Creatinine, treatment ratio versus control","[2]; female rats, day 14",1.08
same,"DAG (C18:1,C18:2), treatment ratio versus control","[2]; female rats, day 14",2.83*
same,"Hippuric acid, treatment ratio versus control","[2]; female rats, day 14",1.04
same,"Indole-3-propionic acid, treatment ratio versus control","[2]; female rats, day 14",0.73
same,"Methionine, treatment ratio versus control","[2]; female rats, day 14",1.12*
same,"Proline, treatment ratio versus control","[2]; female rats, day 14",1.08*
same,"Serine, treatment ratio versus control","[2]; female rats, day 14",1.26*
same,"TAG (C16:0,C18:1,C18:3), treatment ratio versus control","[2]; female rats, day 14",2.42*
same,"TAG (C18:1,C18:2), treatment ratio versus control","[2]; female rats, day 14",2.28*
same,"TAG (C18:2,C18:2), treatment ratio versus control","[2]; female rats, day 14",3.02*
same,"TAG (C18:2,C18:3), treatment ratio versus control","[2]; female rats, day 14",1.94*
same,"TAG (DAG-Fragment), treatment ratio versus control","[2]; female rats, day 14",3.03*
same,"TAG No 02, treatment ratio versus control","[2]; female rats, day 14",0.84*
same,"TAG No 07, treatment ratio versus control","[2]; female rats, day 14",1.99*
same,"Threonine, treatment ratio versus control","[2]; female rats, day 14",1.83*
same,"alpha-Tocopherol, treatment ratio versus control","[2]; female rats, day 14",1.24*
same,"Cholic acid, treatment ratio versus control","[2]; female rats, day 28",5.13*
same,"Choline plasmalogen (C18,C20:4), treatment ratio versus control","[2]; female rats, day 28",1.26*
same,"Citrate, treatment ratio versus control","[2]; female rats, day 28",1.08*
same,"Creatinine, treatment ratio versus control","[2]; female rats, day 28",0.84
same,"DAG (C18:1,C18:2), treatment ratio versus control","[2]; female rats, day 28",3.11*
same,"Hippuric acid, treatment ratio versus control","[2]; female rats, day 28",0.41*
same,"Indole-3-propionic acid, treatment ratio versus control","[2]; female rats, day 28",0.64*
same,"Methionine, treatment ratio versus control","[2]; female rats, day 28",1.11*
same,"Proline, treatment ratio versus control","[2]; female rats, day 28",1.1
same,"Serine, treatment ratio versus control","[2]; female rats, day 28",1.16*
same,"TAG (C16:0,C18:1,C18:3), treatment ratio versus control","[2]; female rats, day 28",1.86*
same,"TAG (C18:1,C18:2), treatment ratio versus control","[2]; female rats, day 28",1.98*
same,"TAG (C18:2,C18:2), treatment ratio versus control","[2]; female rats, day 28",1.79*
same,"TAG (C18:2,C18:3), treatment ratio versus control","[2]; female rats, day 28",1.63*
same,"TAG (DAG-Fragment), treatment ratio versus control","[2]; female rats, day 28",2.22*
same,"TAG No 02, treatment ratio versus control","[2]; female rats, day 28",1.02
same,"TAG No 07, treatment ratio versus control","[2]; female rats, day 28",1.5
same,"Threonine, treatment ratio versus control","[2]; female rats, day 28",1.58*
same,"alpha-Tocopherol, treatment ratio versus control","[2]; female rats, day 28",1.33*
same,"Alanine, treatment ratio versus control","[2]; male rats, day 7",1.15*
same,"Campesterol, treatment ratio versus control","[2]; male rats, day 7",1.14
same,"Citrate, treatment ratio versus control","[2]; male rats, day 7",1.12*
same,"Creatinine, treatment ratio versus control","[2]; male rats, day 7",1.04
same,"Glutamate, treatment ratio versus control","[2]; male rats, day 7",1.09
same,"Glutamine, treatment ratio versus control","[2]; male rats, day 7",0.96
same,"Hippuric acid, treatment ratio versus control","[2]; male rats, day 7",0.69
same,"Lysophosphatidylcholine (C20:4), treatment ratio versus control","[2]; male rats, day 7",0.86*
same,"Malate, treatment ratio versus control","[2]; male rats, day 7",1.17*
same,"Methionine, treatment ratio versus control","[2]; male rats, day 7",1.05*
same,"Ornithine, treatment ratio versus control","[2]; male rats, day 7",1.28*
same,"Phosphatidylcholine (C18:0, C22:6), treatment ratio versus control","[2]; male rats, day 7",1.39*
same,"Serine, treatment ratio versus control","[2]; male rats, day 7",1.17*
same,"Threonic acid, treatment ratio versus control","[2]; male rats, day 7",2.29*
same,"Threonine, treatment ratio versus control","[2]; male rats, day 7",1.28*
same,"Alanine, treatment ratio versus control","[2]; male rats, day 14",1.05
same,"Campesterol, treatment ratio versus control","[2]; male rats, day 14",1.07
same,"Citrate, treatment ratio versus control","[2]; male rats, day 14",1.04
same,"Creatinine, treatment ratio versus control","[2]; male rats, day 14",1.03
same,"Glutamate, treatment ratio versus control","[2]; male rats, day 14",0.77*
same,"Glutamine, treatment ratio versus control","[2]; male rats, day 14",0.81*
same,"Hippuric acid, treatment ratio versus control","[2]; male rats, day 14",0.58*
same,"Lysophosphatidylcholine (C20:4), treatment ratio versus control","[2]; male rats, day 14",0.77*
same,"Malate, treatment ratio versus control","[2]; male rats, day 14",1.08
same,"Methionine, treatment ratio versus control","[2]; male rats, day 14",1
same,"Ornithine, treatment ratio versus control","[2]; male rats, day 14",1.31*
same,"Phosphatidylcholine (C18:0, C22:6), treatment ratio versus control","[2]; male rats, day 14",1.34*
same,"Serine, treatment ratio versus control","[2]; male rats, day 14",1.1*
same,"Threonic acid, treatment ratio versus control","[2]; male rats, day 14",1.86*
same,"Threonine, treatment ratio versus control","[2]; male rats, day 14",1.23
same,"Alanine, treatment ratio versus control","[2]; male rats, day 28",1.02
same,"Campesterol, treatment ratio versus control","[2]; male rats, day 28",0.49*
same,"Citrate, treatment ratio versus control","[2]; male rats, day 28",1.09*
same,"Creatinine, treatment ratio versus control","[2]; male rats, day 28",1.16
same,"Glutamate, treatment ratio versus control","[2]; male rats, day 28",0.88
same,"Glutamine, treatment ratio versus control","[2]; male rats, day 28",0.71*
same,"Hippuric acid, treatment ratio versus control","[2]; male rats, day 28",0.48*
same,"Lysophosphatidylcholine (C20:4), treatment ratio versus control","[2]; male rats, day 28",0.81*
same,"Malate, treatment ratio versus control","[2]; male rats, day 28",1.16
same,"Methionine, treatment ratio versus control","[2]; male rats, day 28",1.1*
same,"Ornithine, treatment ratio versus control","[2]; male rats, day 28",1.21*
same,"Phosphatidylcholine (C18:0, C22:6), treatment ratio versus control","[2]; male rats, day 28",1.19*
same,"Serine, treatment ratio versus control","[2]; male rats, day 28",1.26*
same,"Threonic acid, treatment ratio versus control","[2]; male rats, day 28",2.17*
same,"Threonine, treatment ratio versus control","[2]; male rats, day 28",1.14*
same,capability of inducing an iron adsorption disorder,[2]; statement in words,capable of inducing an iron adsorption disorder
